Tests used:
oligodendrocytes [1] = assay: Kainate-induced death in cultures enriched with oligodendrocytes, counting of living Gal-C (+) cells; type: cell-based, Wistar rats; settings: 48 hours
Experimental: Oligodendrocytes were obtained from primary glial cultures of spinal cords according to the slightly modified method described by Saneto et al. (Neurochemistry, a Practical Approach, IRL Press, oxford-Washington, D.C., p 27-63 (1987)). Spinal cords from 1-day old Wistar rats were dissected under sterile conditions and separated from the meninges. Five to ten spinal cords were transferred into PBS (phosphate-buffered saline: NaCl 137 mM, KCl 2.68 mM, Na2HPO4 6.45 mM, KH2PO4 1.47 mM) to which 0.25% of trypsin was added. The enzymatic treatment was stopped by addition of Dubelco's modified Eagle's medium (DMEM) to which 10% of fetal bovine serum was added (FBS). Another dissolution step was carried out by means of a 1 ml pipette, and the cell suspension was filtered. The cells were collected by centrifugation and plated at a density of 1.5−2×10^6 cells/25 cm^2 of culture medium in Dubelco's modified Eagle's medium (DMEM) to which 10% of fetal bovine serum was added. After 3 days in vitro, the cultures were fed daily. When a visible monolayer was obtained, the cultures were stirred for 2 hours at 37° C. at 250 rpm, the culture medium was removed, and the flasks were again stirred for 22 hours. The cell-containing medium was incubated at 37° C. in petri dishes for 1 hour in order for the microglia to become attached to the plastic. The oligodendrocytes were collected by centrifugation, plated at a density of 1.6×10^6/cm^2 and maintained in DMEM containing 10% FBS for 1 or 2 days. The medium was then replaced with L15 medium to which sodium bicarbonate (22 mM), conalbumin (0.1 mg/ml), putrescine (0.1 mM), insulin (5 μg/ml), sodium selenite (31 nM), glucose (20 mM), progesterone (21 nM), penicillin (100 IU/ml), streptomycin (100 μg/ml), and horse serum (2%) were added. The oligodendrocytes rapidly differentiated within 24 to 48 hours into a mature and immature phenotype.
(§1) After 48 hours, measured from the start of treatment, the living oligodendrocytes were counted.
The number of Gal-C (+) oligo-dendrocytes were divided for 2 separate counts of the labeled cells in at least 12 fields of 0.63 mm^2 under a 400X microscope. The values were expressed as the number of cells per cm^2 or as the percentage of the control.
The statistical analyses were carried out using the Student's test (t-test).
The cultures of oligodendrocytes were exposed to concentrations of 0.1 to 1 mM kainate for 48 hours.

oligodendrocytes [2] = assay: Test 3: protective effect of riluzole on oligodendrocyte death induced by kainate; type: cell-based, Wistar rats; settings: Kainate 1000 alone (no riluzole), 48 hours
Experimental: Oligodendrocytes were obtained from primary glial cultures of spinal cords according to the slightly modified method described by Saneto et al. (Neurochemistry, a Practical Approach, IRL Press, oxford-Washington, D.C., p 27-63 (1987)). Spinal cords from 1-day old Wistar rats were dissected under sterile conditions and separated from the meninges. Five to ten spinal cords were transferred into PBS (phosphate-buffered saline: NaCl 137 mM, KCl 2.68 mM, Na2HPO4 6.45 mM, KH2PO4 1.47 mM) to which 0.25% of trypsin was added. The enzymatic treatment was stopped by addition of Dubelco's modified Eagle's medium (DMEM) to which 10% of fetal bovine serum was added (FBS). Another dissolution step was carried out by means of a 1 ml pipette, and the cell suspension was filtered. The cells were collected by centrifugation and plated at a density of 1.5−2×10^6 cells/25 cm^2 of culture medium in Dubelco's modified Eagle's medium (DMEM) to which 10% of fetal bovine serum was added. After 3 days in vitro, the cultures were fed daily. […]
as §1
The number of Gal-C (+) oligo-dendrocytes were divided for 2 separate counts of the labeled cells in at least 12 fields of 0.63 mm^2 under a 400X microscope. The values were expressed as the number of cells per cm^2 or as the percentage of the control. […]

C=C(C)[C@H]1CN[C@H](C(=O)O)[C@H]1CC(=O)O [Kainate]
Number of oligodendrocytes % relative to the control ± standard deviation (oligodendrocytes [1]; kainate 0.01 mM): 108.2 ± 25.2 % relative to the control | Number of oligodendrocytes % relative to the control ± standard deviation (oligodendrocytes [1]; kainate 0.1 mM): 76.3 ± 27.9 % relative to the control | Number of oligodendrocytes % relative to the control ± standard deviation (oligodendrocytes [1]; kainate 0.5 mM): 25.3 ± 9.3 % relative to the control | Number of oligodendrocytes % relative to the control ± standard deviation (oligodendrocytes [1]; kainate 1 mM): 22.9 ± 7.1 % relative to the control | Induction of death of the oligodendrocytes through apoptosis (oligodendrocytes [1]; kainate at doses of from about 0.1 mM to about 1 mM): strongly induced death of the oligodendrocytes through apoptosis | Number of oligodendrocytes % relative to the control ± standard deviation (oligodendrocytes [2]): 22.9 ± 7.1 % relative to the control

From patent publication US20020037902A1 (priority 2000, published 2002)
